What was measured:
A549 [1] = test: Photocytotoxicity in human A549 cells assessed as cell viability at 10 uM measured after 24 hrs by MTT assay relative to control; type: functional; conditions: read-out: Activity
[2] = Induction of singlet oxygen generation in THF assessed as singlet oxygen quantum yield by comparative photoluminescence method; type: functional
[3] = Fluorescence property of the compound in THF assessed as fluorescence quantum yield by photoluminescence quantum yield spectrometer; type: physicochemical
[4] = Fluorescence property of the compound in DMSO assessed as fluorescence quantum yield by photoluminescence quantum yield spectrometer; type: physicochemical
NCI-H1299 [5] = test: Dark toxicity against human NCI-H1299 cells assessed as reduction in metabolic activity at <1 uM incubated for 4 hrs by MTT assay; type: cell-based; conditions: nci-h1299, 4 h
[6] = Phototoxicity against human A549 cells assessed as reduction in cell viability preincubated for 24 hrs followed by 7.5 to 10 mW/cm^-2 red light irradiation and measured after 24 hrs by MTT assay; type: functional, cell-based; conditions: A549, light or radiation study
[7] = Phototoxicity against human NCI-H1299 cells assessed as reduction in cell viability preincubated for 24 hrs followed by 7.5 to 10 mW/cm^-2 red light irradiation and measured after 24 hrs by MTT assay; type: functional, cell-based; conditions: NCI-H1299, light or radiation study
A549 [8] = test: Dark toxicity against human A549 cells assessed as reduction in metabolic activity at <1 uM incubated for 4 hrs by MTT assay; type: cell-based; conditions: a549, 4 h
NCI-H1299 [9] = test: Dark toxicity against human NCI-H1299 cells assessed as reduction in metabolic activity at 10 uM incubated for 4 hrs by MTT assay; type: cell-based; conditions: nci-h1299, 4 h
A549 [10] = test: Dark toxicity against human A549 cells assessed as reduction in metabolic activity at 5 uM incubated for 4 hrs by MTT assay relative to control; type: cell-based; parameters: scale not given: the % may be the effect or the level left; conditions: a549, 4 h
A549 [11] = test: Dark toxicity against human A549 cells assessed as reduction in metabolic activity at 10 uM incubated for 4 hrs by MTT assay; type: cell-based; parameters: scale not given: the % may be the effect or the level left; conditions: a549, 4 h

Activity [3] | Activity [4] | SMILES | viability at 10 µM (A549 [1]) [%] | Activity [2] | Activity (NCI-H1299 [5]) | IC50 [6] [nM] | IC50 [7] [nM] | Activity (A549 [8]) | Activity (NCI-H1299 [9]) | Activity (A549 [10]) [%] | Activity (A549 [11]) [%]
0.133 | 0.283 | C/C(=N/NC(=O)OC(C)(C)C)c1c2nc(c(-c3cccc(O)c3)c3ccc([nH]3)c3ccc([nH]3)c(-c3cccc(O)c3)c3ccc1[nH]3)C=C2 | – | 0.26 | Non-toxic | 140 | 67.5 | Non-toxic | – | – | –
0.159 | 0.298 | CC(C)(C)OC(=O)N/N=C(\c1ccccc1)c1c2nc(c(-c3ccccc3)c3ccc([nH]3)c3ccc([nH]3)c(-c3ccccc3)c3ccc1[nH]3)C=C2 | – | 0.46 | Non-toxic | 948 | 538 | Non-toxic | Non-toxic | – | –
0.073 | 0.212 | C/C(=N\NS(=O)(=O)c1ccc(C)cc1)c1c2nc(c(-c3ccc(O)cc3)c3ccc([nH]3)c3ccc([nH]3)c(-c3ccc(O)cc3)c3ccc1[nH]3)C=C2 | – | 0.19 | Non-toxic | 892 | 277 | Non-toxic | – | 17.95 | 13.93

Continued, compound first:

SMILES | Activity [3] | Activity [4] | viability at 10 µM (A549 [1]) [%] | Activity [2] | Activity (NCI-H1299 [5]) | IC50 [6] [nM] | IC50 [7] [nM] | Activity (A549 [8]) | Activity (NCI-H1299 [9]) | Activity (A549 [10]) [%] | Activity (A549 [11]) [%]
C1=Cc2nc1c(-c1ccccc1)c1ccc([nH]1)c(-c1ccccc1)c1ccc([nH]1)c1ccc([nH]1)c2-c1ccccc1 | 0.12 | 0.22 | 93 | 0.22 | – | – | – | – | – | – | –
C/C(=N/NC(=O)OC(C)(C)C)c1c2nc(c(-c3ccc(O)cc3)c3ccc([nH]3)c3ccc([nH]3)c(-c3ccc(O)cc3)c3ccc1[nH]3)C=C2 | 0.114 | 0.249 | – | 0.18 | Non-toxic | 413 | 145 | Non-toxic | – | – | –
Oc1cccc(-c2c3nc(c(-c4cccc(O)c4)c4ccc([nH]4)c(-c4cccc(O)c4)c4nc(c(-c5cccc(O)c5)c5ccc2[nH]5)CC4)C=C3)c1 [TEMOPORFIN] | – | – | – | – | – | 84.1 | – | – | – | – | –

Reference: ChEMBL document CHEMBL6087389, “Hydrazone-Functionalized trans-A2B-Corroles: Effective Synergy in Photodynamic Therapy of Lung Cancer” (J Med Chem, 2024)
